Laboratory results published in patent publication US6670383B2, “Pyranocoumarin compounds as a novel pharmacophore with anti-TB activity” (priority 2001, dated 2003).
Values after ≈ are worked out from the molar mass of the structure shown. Where two headings read alike, the source gives them in different places.

Experiments:
Assay in all cases: microbe, parasite or virus in culture
Type in all cases: cell-based
[1] = tested on: M. tuberculosis strain 1348
[2] = tested on: M. tuberculosis strain 1356
[3] = tested on: M. tuberculosis strain 1369
[4] = tested on: M. tuberculosis strain 1371
[5] = Mycobacterium tuberculosis, 1348
[6] = Mycobacterium tuberculosis, 1356
[7] = Mycobacterium tuberculosis, 1369
[8] = Mycobacterium tuberculosis, 1371

| Molecule | MIC [1, 5] | fold resistance ([1]; strain 1348) | MIC [2, 6] | fold resistance ([2]; strain 1356) | MIC [3, 7] | fold resistance ([3]; strain 1369) | MIC [4, 8] | fold resistance ([4]; strain 1371) | MIC ([1]; strain 1348) | MIC ([2]; strain 1356) | MIC ([3]; strain 1369) | MIC ([4]; strain 1371) | fold resistance [1] | fold resistance [2] | fold resistance [3] | fold resistance [4] |
| --- | --- | --- | --- | --- | --- | --- | --- | --- | --- | --- | --- | --- | --- | --- | --- | --- |
| [H]/N=C(/N)N[C@H]1[C@H](O)[C@@H](O)[C@H](O[C@@H]2O[C@@H](C)[C@](O)(C=O)[C@H]2O[C@@H]2O[C@@H](CO)[C@H](O)[C@@H](O)[C@@H]2NC)[C@@H](N/C(N)=N\[H])[C@@H]1O [Streptomycin] | 0.25 µg/mL (≈ 0.43 µM) | 1 fold | 0.25 µg/mL (≈ 0.43 µM) | 1 fold | 0.25 µg/mL (≈ 0.43 µM) | 1 fold | > 128 µg/mL | (>512) fold | – | – | – | – | – | – | – | – |
| CC[C@@H](CO)NCCN[C@@H](CC)CO [Ethambutol] | 8 µg/mL (≈ 39.2 µM) | 4 fold | 64 µg/mL (≈ 313 µM) | 32 fold | 2 µg/mL (≈ 9.79 µM) | 1 fold | 2 µg/mL (≈ 9.79 µM) | 1 fold | – | – | – | – | – | – | – | – |
| (+)-Calanolide A [(+)-Calanolide A (1)] | – | 1 fold | – | 1 fold | – | 1 fold | – | 1 fold | 8 µg/mL | 8 µg/mL | 8 µg/mL | 8 µg/mL | – | – | – | – |
| NNC(=O)c1ccncc1 [Isoniazid] | > 128 µg/mL | – | 0.25 µg/mL (≈ 1.82 µM) | – | 0.031 µg/mL (≈ 0.226 µM) | – | 0.031 µg/mL (≈ 0.226 µM) | – | – | – | – | – | >128 (>4100) fold | 0.25 (8) fold | 0.031 (1) fold | 0.031 (1) fold |
| CO[C@H]1/C=C/O[C@@]2(C)Oc3c(C)c(O)c4c(O)c(c(/C=N/N5CCN(C)CC5)c(O)c4c3C2=O)NC(=O)/C(C)=C\C=C\[C@H](C)[C@H](O)[C@@H](C)[C@@H](O)[C@@H](C)[C@H](OC(C)=O)[C@@H]1C [Rifampin] | 0.031 µg/mL (≈ 0.0377 µM) | – | 0.031 µg/mL (≈ 0.0377 µM) | – | 64 µg/mL (≈ 77.8 µM) | – | 0.016 µg/mL (≈ 0.0194 µM) | – | – | – | – | – | 0.031 (2) fold | 0.031 (2) fold | 64 (4,000) fold | 0.016 (1) fold |
